Measurements from the NIST ThermoML archive (doi:10.1016/j.jct.2010.01.008).
± gives the expanded uncertainty stated by the source.

Legend:
[1] = 298.15 K; 101.33 kPa; Liquid; Vibrating tube method
[2] = refractive index (Na D-line) (dimensionless); settings: 298.15 K; 101.33 kPa; Liquid; Automatic Refractometer
[3] = xn = mol fraction of the nth substance listed; settings: 298.15 K, 101.3 kPa, Liquid, Vibrating tube method

CCOS(=O)(=O)[O-].CC[n+]1cccc(C)c1 [1-ethyl-3-methylpyridinium ethylsulfate]
mass density [1]: 1219.61 ± 0.42 kg/m3
refractive index [2]: 1.50591 ± 0.00022

CCCCCCC [heptane] + Cc1ccccc1
mass density ([3]; x1 = 1): 679.56 ± 0.2 kg/m3

CCCCCCCCC [nonane] + Cc1ccccc1
mass density ([3]; x1 = 0.096): 838.74 ± 0.27 kg/m3
mass density ([3]; x1 = 0.1942): 817.91 ± 0.25 kg/m3
mass density ([3]; x1 = 0.2952): 799.09 ± 0.24 kg/m3
mass density ([3]; x1 = 0.3954): 782.63 ± 0.23 kg/m3
mass density ([3]; x1 = 0.4954): 768.02 ± 0.23 kg/m3
mass density ([3]; x1 = 0.5929): 755.35 ± 0.23 kg/m3
mass density ([3]; x1 = 0.6939): 743.54 ± 0.24 kg/m3
mass density ([3]; x1 = 0.7939): 732.97 ± 0.25 kg/m3
mass density ([3]; x1 = 0.8947): 723.28 ± 0.26 kg/m3
mass density ([3]; x1 = 1): 713.99 ± 0.26 kg/m3

CCCCCCCC [octane] + Cc1ccccc1
mass density ([3]; x1 = 0.0982): 838.13 ± 0.27 kg/m3
mass density ([3]; x1 = 0.1977): 816.31 ± 0.26 kg/m3
mass density ([3]; x1 = 0.2975): 796.62 ± 0.24 kg/m3
mass density ([3]; x1 = 0.3983): 778.64 ± 0.23 kg/m3
mass density ([3]; x1 = 0.5005): 761.92 ± 0.23 kg/m3
mass density ([3]; x1 = 0.5988): 747.35 ± 0.22 kg/m3
mass density ([3]; x1 = 0.699): 733.63 ± 0.22 kg/m3
mass density ([3]; x1 = 0.7966): 721.31 ± 0.22 kg/m3
mass density ([3]; x1 = 0.8955): 709.92 ± 0.22 kg/m3
mass density ([3]; x1 = 1): 698.6 ± 0.19 kg/m3

Cc1ccccc1 [toluene] + CCCCCCC
mass density ([3]; x2 = 0): 862.17 ± 0.14 kg/m3
mass density ([3]; x2 = 0.0974): 838.12 ± 0.28 kg/m3
mass density ([3]; x2 = 0.1996): 814.81 ± 0.27 kg/m3
mass density ([3]; x2 = 0.2997): 793.52 ± 0.26 kg/m3
mass density ([3]; x2 = 0.397): 774.31 ± 0.25 kg/m3
mass density ([3]; x2 = 0.497): 755.94 ± 0.24 kg/m3
mass density ([3]; x2 = 0.5961): 738.9 ± 0.24 kg/m3
mass density ([3]; x2 = 0.6967): 722.76 ± 0.24 kg/m3
mass density ([3]; x2 = 0.7958): 707.78 ± 0.24 kg/m3
mass density ([3]; x2 = 0.8973): 693.24 ± 0.23 kg/m3

Cc1ccccc1 [toluene] + CCCCCCCC
mass density ([3]; x2 = 0): 862.17 ± 0.14 kg/m3

Cc1ccccc1 [toluene] + CCCCCCCCC
mass density ([3]; x2 = 0): 862.17 ± 0.14 kg/m3
